The text below walks through data of patent publication US20240033319A1, “PEPTIDES FOR PREVENTING OR TREATING HEART AND BLOOD VESSEL DISEASES” (RD NÉPHROLOGIE, priority 2020, published 2024).

For experiment [1], the system named is human aortic smooth muscle cells (hAoSMCs). Briefly: Calcification of cultivated human aortic smooth muscle cells in calcifying medium (Ca2+ content). The class given is cell-based. The following applies: for effect on calcium content / calcification of hAoSMCs: peptide fragment 100 nmol L^−1, 7 days. On the procedure:
Cell culture and calcification induction in human aortic smooth muscle cells: Human aortic smooth muscle cells (hAoSMCs) (Promocell, Heidelberg, Germany) were cultivated in smooth muscle cell medium (Promocell, Heidelberg, Germany). The hAoSMCs were seeded in 48 well plates (5×10^3 cells/well) at 80% confluence. Dulbecco's modified Eagle's medium (DMEM) containing 25 mmol L^−1 glucose supplemented with 2.5% fetal calf serum and 2.8 mmol L^−1 phosphate were used to induce calcification (calcifying medium, CM). The calcifying medium was supplemented with CBF (max. concentration 100 pmol L^−1) or CBF fragments (100 nmol L^−1). As reference medium, DMEM containing 25 mmol L^−1 glucose supplemented with 2.5% fetal calf serum and 0.9 mmol L^−1 phosphate were used (non-calcifying medium, NCM). The hAoSMCs were incubated for 7 days while the incubation medium was replaced after 48 h.
Measurement of calcium content: For determination of calcium content, cells or aortic rings were washed 3 times with PBS without calcium. Aortic rings were dried and weighed. Dried aortic rings and cells were decalcified with 0.1 M HCl for 24 h, and the calcium content in the supernatant was determined by the o-cresolphthalein complexone method (Clinical Chemistry Assay Kit/Calcium, County Antrim, UK) according to the manufacturer's protocol. Cell content was extracted in 0.1 M NaOH 0.1% sodium dodecyl sulfate (SDS), and protein content was measured by the bicinchoninic acid (BCA) protein assay method (Thermo Fisher Scientific, Germany). The calcium content was normalized to total protein for cells or dry weight for aortic rings.

For experiment [2], the system named is rat aortic rings. Conditions: for effect on calcium content / calcification of rat aortic rings: peptide fragment 100 nmol L^−1, 7 days.
Experiment [3] has as its system VDN rats. Briefly: VDN (vitamin D3 plus nicotine) rat model of elastocalcinosis: aortic calcium, von Kossa staining, pulse pressure. Type of experiment: in vivo. The following applies: for pulse pressure (Example 3 peptide comparison) / calcified surface of the aortas, Von Kossa staining (Example 3 peptide comparison) / calcium content of the aortas (Example 3 peptide comparison): VDN animals, versus control animals; for pulse pressure (Example 3 peptide comparison): FIG. 5a; for calcified surface of the aortas, Von Kossa staining (Example 3 peptide comparison): FIG. 5b; for calcium content of the aortas (Example 3 peptide comparison): FIG. 5c. On the procedure:
Ex vivo and calcification of rat aortic rings: The thoracic aorta of 8-13 weeks old male Wistar-rats were gently dissected and were cut in 3-4 mm segments. The endothelial layer of the aortic ring was manually damaged by scratching using a conventional pipette tip. The aortic rings were incubated with DMEM containing 25 mmol L^−1 glucose supplemented with 2.5% fetal calf serum and 2.8 mmol L^−1 phosphate to induce calcification. The calcification medium was supplemented with CBF (max. concentration 1 μmol L^−1) or CBF fragments (100 nmol L^−1). As reference medium, DMEM containing 25 mmol L^−1 glucose supplemented with 2.5% fetal calf serum and 0.9 mmol L^−1 phosphate were used (non-calcifying medium, NCM). The aortic rings were incubated for 7 days while the medium was replaced after 48 h. Effect of CBF in an animal model with enhanced arterial calcification: An animal model of elastocalcinosis with proven increased arterial calcification (Niederhoffer et al., “Aortic calcification produced by vitmin D3 plus nicotine”, J. Vasc. Res. 34, 386-98, 1997) was chosen to assay the effects of CBF in vivo. Animal experiments were approved by the regional ethics committee “Comité d'éthique pour I'expérimentation animale Languedoc Roussillon N°36”, with the agreement number APAFIS 2018072715539434#17270v4, and conformed to the Guide for the Care and Use of Laboratory Animals, NIH (National Academies Press US, 8th edition, 2011). Three groups of 6 weeks old Wistar rats (Charles River Laboratories, L'Arbresle, France) were given a regular rat chow (A04, Safe, Villemoisson-sur-Orge, France) and spring water (Mont Roucous®, France; calcium 60 μM) ad libitum for one week before experiments. Two groups received CBF (31 μg kg^−1 per day) or its vehicle (saline) infused through an osmotic pump (Alzet 2004, Charles River, France) implanted under the skin. CBF treatment was initiated 3 or 4 days before induction of elastocalcinosis (vitamin D3 plus nicotine, or VDN rats) with a single injection of vitamin D3 (300,000 IU kg^−1, i.m.) and two gavages of nicotine (25 mg kg^−1, 5 ml kg^−1) on the same day, as previously described ^47.
Untreated rats served as control rats (sham operation and saline administration). Four weeks later, rats were anaesthetized (ketamine-xylazine), and a catheter was inserted into the right carotid artery for blood pressure measurement. After 10-15 min of equilibration, systolic, diastolic, mean arterial, and pulse (systolic-diastolic) pressures were determined. The aorta was gently dissected, adventitial fat removed, and cut into segments (3-4 mm) for further analysis.
Histological calcification staining and immunofluorescence staining: Aortic rings were placed in 1 ml of 4% formaldehyde for 1 h to prepare for histological and immunohistochemical staining. The rings were dehydrated and embedded in paraffin and 5 μm slices were prepared by a microtome (Leica RM 2250, Wetzlar, Germany). The slices were placed on a glass slide, deparaffinized in xylene, and dehydrated in decreasingly concentrated sopropanol solutions before staining. Von Kossa staining was performed to visualize calcified areas of the aortic rings. The aortic ring slides were incubated with 5% silver nitrate in the presence of UV light at 405 nm for 1 h, washed three times with double-distilled water (ddH2O), incubated in the presence of 5% sodium thiosulfate in water for 1 min, and washed three times with ddH2O. Next, nuclear fast red (Merck; Darmstadt, Germany) was added to the slides for 5 min. The slides were then rinsed, dehydrated with ethanol, incubated for 5 min in xylol, and covered with Vitro-Clud (R. Langenbrinck; Emmendingen, Germany). For immunohistochemical analyses, sections were blocked with blocking solution (1% bovine serum albumin (BSA)) for 30 min at room temperature. […]

No end group written: not given here.

Take “CBF2: CBF fragment comprising the amino acids 11-19 (RDSSMKLSF; listed as Homo sapiens)”: in experiment [1], the “effect on calcium content / calcification of hAoSMCs” value is “no significant effect”. In addition, the “effect on calcium content / calcification of rat aortic rings” value in experiment [2] (calcifying medium) is “no significant effect”. In experiment [3], the “pulse pressure (Example 3 peptide comparison)” value is recorded as “no effect”; the “calcified surface of the aortas, Von Kossa staining (Example 3 peptide comparison)” value (“calcified surface of the aortas” for short) is reported as “no effect”; the “calcium content of the aortas (Example 3 peptide comparison)” value (from here on “calcium content of the aortas”) is “no effect”.
For “EEDN (listed as Homo sapiens) [CBF 07-10]”, the “effect on calcium content / calcification of hAoSMCs” value in experiment [1] was “inhibitory effect on vascular calcification”. For the same substance, the “effect on calcium content / calcification of rat aortic rings” value in experiment [2] (calcifying medium) is listed as “inhibitory effect on vascular calcification”.
For “EEED (listed as Homo sapiens) [CBF 06-09]”, the “effect on calcium content / calcification of hAoSMCs” value in experiment [1] is “strongest inhibition”. In experiment [2] (calcifying medium), the “effect on calcium content / calcification of rat aortic rings” value was “strongest inhibition”.
Take “EEEDN (listed as Homo sapiens) [CBF 06-10]”: in experiment [1], the “effect on calcium content / calcification of hAoSMCs” value is listed as “significant reduction of calcification”. The “effect on calcium content / calcification of rat aortic rings” value in experiment [2] (calcifying medium) is on record as “significant reduction of calcification”.
On to “EEEDN RDSSM (EEEDNRDSSM; listed as Homo sapiens) [CBF fragment 06-15]”, for which the “effect on calcium content / calcification of hAoSMCs” value in experiment [1] is “no significant effect”. Besides, the “effect on calcium content / calcification of rat aortic rings” value in experiment [2] (calcifying medium) was “no significant effect”.
With “EEEE (listed as Homo sapiens) [CBF 05-08]”, in experiment [1], the “effect on calcium content / calcification of hAoSMCs” value is “strongest inhibition”. For the same substance, the “effect on calcium content / calcification of rat aortic rings” value in experiment [2] (calcifying medium) is on record as “strongest inhibition”.
Take “EGQE (listed as Homo sapiens) [CBF 02-05]”: in experiment [1], the “effect on calcium content / calcification of hAoSMCs” value was “inhibitory effect on vascular calcification”. Also, in experiment [2] (calcifying medium), the “effect on calcium content / calcification of rat aortic rings” value is on record as “inhibitory effect on vascular calcification”.
As for “GQEE (listed as Homo sapiens) [CBF 03-06]”, the “effect on calcium content / calcification of hAoSMCs” value in experiment [1] was “inhibitory effect on vascular calcification”. The “effect on calcium content / calcification of rat aortic rings” value in experiment [2] (calcifying medium) was “inhibitory effect on vascular calcification”.
“LEGQ (listed as Homo sapiens) [CBF 01-04]”: in experiment [1], the “effect on calcium content / calcification of hAoSMCs” value is recorded as “inhibitory effect on vascular calcification”. Further, the “effect on calcium content / calcification of rat aortic rings” value in experiment [2] (calcifying medium) was “inhibitory effect on vascular calcification”.
In the case of “LEGQE (listed as Homo sapiens) [CBF 01-05]”, the “effect on calcium content / calcification of hAoSMCs” value in experiment [1] was “significant reduction of calcification”. Moreover, in experiment [2] (calcifying medium), the “effect on calcium content / calcification of rat aortic rings” value is recorded as “significant reduction of calcification”.
On to “LEGQE EEEDN (LEGQEEEEDN; listed as Homo sapiens) [CBF1, amino acids 1-10 of CBF]”, for which the “effect on calcium content / calcification of hAoSMCs” value in experiment [1] is “significantly decreased the calcium content”. The “effect on calcium content / calcification of rat aortic rings” value in experiment [2] (calcifying medium) was “significantly decreased the calcium content”. In addition, in experiment [3], the “calcified surface of the aortas” value is “even more pronounced decrease” and the “calcium content of the aortas” value was “even more pronounced decrease”.
For orientation: EC50 means the midpoint of the concentration-response curve. Read a low EC50 as an effect from little substance. For the substance “LEGQEEEEDNRDSSMKLSF [CBF, LEGQE EEEDN RDSSM KLSF]”, the “threshold concentration for decreasing calcification in hAoSMCs” value in experiment [1] (hAoSMCs, 7 days, Ca2+ content) was ~1 amol L^−1. Also, the half-maximal effective concentration (EC50) in experiment [2] is ~100 pM. Moreover, in experiment [2] (aortic rings ex vivo, calcifying medium, 7 days, Ca content), the “threshold concentration for reducing calcification of rat aortic rings” value is ~0.01 nmol/L. Also, in experiment [2] (calcifying medium, CBF 100 nM), the “reduction in the calcified area of aortic rings (von Kossa staining)” value stood at 40%. Moreover, in experiment [3] (31 μg kg^−1 per day via osmotic pump for 4 weeks), the “Ca2+ content in vessels of treated VDN rats compared to untreated animals” value was “significantly reduced”. Moreover, in experiment [3], the “pulse pressure (Example 3 peptide comparison)” value is on record as “significantly lower pulse pressure”; the “calcified surface of the aortas” value was “decreased calcified surface”; the “calcium content of the aortas” value is listed as “decrease in calcium content”. The “reduction of pulse pressure” value in experiment [3] (VDN rats, 31 μg kg^−1 per day for 4 weeks) turned out to be 63%. Further, the “decrease of calcified surface of aorta (von Kossa staining)” value in experiment [3] (VDN rats, 31 μg kg^−1 per day via osmotic pump for 4 weeks) is 70%. The pulse pressure in experiment [3] (VDN rats, chronic treatment 4 weeks, untreated VDN 81±6) is given as 53±3. Moreover, the “arterial pressure in VDN animals” value in experiment [3] (chronic treatment in vivo, 4 weeks) is “significant decrease”.
On to “QEEE (listed as Homo sapiens) [CBF 04-07]”, for which, in experiment [1], the “effect on calcium content / calcification of hAoSMCs” value is listed as “strongest inhibition”. The “effect on calcium content / calcification of rat aortic rings” value in experiment [2] (calcifying medium) is recorded as “strongest inhibition”.
